Some test systems named below: A498; A549; HT-29; LOX IMVI; MCF7; MDA-MB-231; MDA-MB-435; OVCAR-3; OVCAR-8; PC-3; RXF 393; SF-539; SK-MEL-28; SK-MEL-5; SK-OV-3; SR; T47D; TK-10; UACC-62; NCI-H460.
Holding throughout (test): NCI anticancer screen, dose series, 48 h

Structures are written as SMILES.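 Compound exposure: 48 hours, 5 concentrations, 96-well plates. GI50 = concentration required for 50% inhibition of growth.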 Active and inactive are the calls of the source. No stated cut-off is given here; in the data, active = GI50 up to about 1.1 µM and inactive = higher. Some results are limits rather than exact numbers.

`O=C1N(c2ccccc2)C2(c3ccccc3)CC3CCCC13S2` (stereo not given): the GI50 in the assay with A498 was 75 µM (inactive); with A549, 53 µM (inactive); with HT-29, 42.8 µM (inactive); in the assay on LOX IMVI, 53.5 µM (inactive); in the assay with MCF7, 42.1 µM (inactive); in the assay with MDA-MB-231, 72.1 µM (inactive). The GI50 with MDA-MB-435 was 33.3 µM (inactive); in the assay on OVCAR-3, 55.5 µM (inactive); in the assay on OVCAR-8 it was > 100 µM (inactive); in the assay on PC-3, 21.9 µM (inactive); in the assay with RXF 393, > 100 µM (inactive); in the assay with SF-539, > 100 µM (inactive). Further, the GI50 in the assay with SK-MEL-28 is > 100 µM (inactive); in the assay with SK-MEL-5 it was 33.3 µM (inactive); in the assay with SK-OV-3, > 100 µM (inactive); with SR, 26.4 µM (inactive); in the assay on T47D, 31.3 µM (inactive); with TK-10, 0.249 µM (active). In the assay on UACC-62, the GI50 is 77.8 µM (inactive).

Regarding `Cc1nnc(N)nc1/C=C/c1c(O)ccc2ccccc12`, the GI50 was 21.3 µM (inactive) with A498; 34 µM (inactive) with A549; 27 µM (inactive) in the assay with HT-29; 34.3 µM (inactive) in the assay with LOX IMVI; 32.8 µM (inactive) in the assay with MCF7; > 100 µM (inactive) in the assay on MDA-MB-231. Also, the GI50 in the assay on MDA-MB-435 is 24.7 µM (inactive); in the assay with NCI-H460 it was 24.5 µM (inactive); in the assay with OVCAR-8, 35.2 µM (inactive); in the assay on PC-3, 22.8 µM (inactive); in the assay with RXF 393, 15.6 µM (inactive); with SK-MEL-28 it was 29.7 µM (inactive). For the same molecule, the GI50 with SK-MEL-5 is 25.7 µM (inactive); with SK-OV-3, 27.5 µM (inactive); in the assay with SR, 44.4 µM (inactive); with T47D it was 36.7 µM (inactive); with TK-10, 54.8 µM (inactive); with UACC-62 it was 21.5 µM (inactive).

Regarding `COC(=O)c1c(C#N)[nH]c(-c2ccsc2)c1C(=O)OC`, the GI50 with A498, with A549, in the assay on HT-29, with LOX IMVI, in the assay on MCF7 and in the assay on MDA-MB-231 was > 100 µM (inactive) throughout. The GI50 with MDA-MB-435 is > 100 µM (inactive); with OVCAR-3 it was > 100 µM (inactive); with OVCAR-8 it was > 100 µM (inactive); with PC-3, 70.6 µM (inactive); in the assay with RXF 393, > 100 µM (inactive); with SK-MEL-28, > 100 µM (inactive). Further, the GI50 in the assay with SK-MEL-5 was 39 µM (inactive); in the assay with SK-OV-3, > 100 µM (inactive); in the assay with SR, > 100 µM (inactive); in the assay with T47D it was 37.1 µM (inactive); in the assay on TK-10, > 100 µM (inactive); with UACC-62, 76 µM (inactive).

For `COc1ccc(/C=C2\C[C@H]3[C@@H]4CC=C5C[C@@H](O)CC[C@]5(C)[C@H]4CC[C@]3(C)\C2=N\O)cc1`, the GI50 is 25.9 µM (inactive) with A498; 7.98 µM (inactive) with A549; 16.1 µM (inactive) in the assay on HT-29; 11.6 µM (inactive) with LOX IMVI; 3.62 µM (inactive) with MCF7; 35.2 µM (inactive) in the assay on MDA-MB-231. Further, the GI50 was 10.5 µM (inactive) in the assay with MDA-MB-435; 34.4 µM (inactive) in the assay with NCI-H460; 6.89 µM (inactive) in the assay with OVCAR-3; 8.45 µM (inactive) in the assay on PC-3; 12.7 µM (inactive) in the assay on RXF 393; 21.8 µM (inactive) in the assay with SF-539. For the same molecule, the GI50 is 24.2 µM (inactive) with SK-MEL-28; 5.04 µM (inactive) in the assay on SK-MEL-5; 34.9 µM (inactive) with SK-OV-3; 1.89 µM (inactive) with SR; 1.26 µM (inactive) in the assay with T47D; 27.6 µM (inactive) with TK-10. The GI50 with UACC-62 is 17.7 µM (inactive).

As to `O=C1/C(=C\c2cccc(Oc3ccccc3)c2)S(=O)(=O)C(c2ccccc2)N1Cc1ccccc1` (stereo not given), the GI50 was 19.3 µM (inactive) with A498; 49.2 µM (inactive) in the assay on A549; 25.1 µM (inactive) in the assay on LOX IMVI; 39.1 µM (inactive) with MCF7; 25.6 µM (inactive) in the assay on MDA-MB-231; 32.3 µM (inactive) with MDA-MB-435. Besides, the GI50 was 15.1 µM (inactive) in the assay with NCI-H460; 13.8 µM (inactive) in the assay with OVCAR-3; 17.8 µM (inactive) in the assay on OVCAR-8; 24.7 µM (inactive) with PC-3; 27 µM (inactive) with RXF 393; 36.4 µM (inactive) with SF-539. Besides, the GI50 in the assay with SK-MEL-28 is 29.8 µM (inactive); in the assay with SK-MEL-5, 18.5 µM (inactive); in the assay on SK-OV-3, > 100 µM (inactive); in the assay on SR, 14.9 µM (inactive); in the assay on T47D it was 32.8 µM (inactive); in the assay with TK-10, 33.6 µM (inactive). Further, in the assay on UACC-62, the GI50 is 19.1 µM (inactive).

In the case of `OC1c2ccccc2CC12Cc1ccccc1C2` (stereo not given), the GI50 with A498 was > 100 µM (inactive); in the assay on A549, 99.5 µM (inactive); with HT-29 it was 86.7 µM (inactive); with LOX IMVI, > 100 µM (inactive); in the assay with MCF7 it was > 100 µM (inactive); in the assay with MDA-MB-231, > 100 µM (inactive). Further, the GI50 with MDA-MB-435 is > 100 µM (inactive); in the assay on NCI-H460, > 100 µM (inactive); with OVCAR-3 it was 90.2 µM (inactive); in the assay with OVCAR-8, > 100 µM (inactive); in the assay on PC-3, > 100 µM (inactive); with RXF 393 it was 48.3 µM (inactive). Also, the GI50 with SF-539 is > 100 µM (inactive); in the assay with SK-MEL-28, > 100 µM (inactive); in the assay on SK-MEL-5, 22.6 µM (inactive); with SK-OV-3 it was > 100 µM (inactive); in the assay with SR, 38.5 µM (inactive); with T47D, > 100 µM (inactive). In the assay with TK-10, the GI50 is > 100 µM (inactive).

In the case of `OC(c1cccnc1)C(F)(F)c1nc2ccccc2o1` (stereo not given), the GI50 in the assay on A498 was 49.9 µM (inactive); in the assay on HT-29, > 100 µM (inactive); in the assay with LOX IMVI it was > 100 µM (inactive); in the assay on MCF7 it was > 100 µM (inactive); in the assay on MDA-MB-231, > 100 µM (inactive); in the assay on MDA-MB-435 it was > 100 µM (inactive). In addition, the GI50 in the assay on NCI-H460, in the assay on OVCAR-8, with PC-3, with RXF 393, with SF-539 and in the assay on SK-MEL-28 was > 100 µM (inactive) in each case. The GI50 in the assay on SK-MEL-5, in the assay on SR, in the assay on T47D, in the assay on TK-10 and in the assay with UACC-62 was > 100 µM (inactive) in each case.

For the molecule `NC1=NN(c2ccccc2)C2(O)c3ccncc3C3=NN(c4ccccc4)C(=O)C132` (stereo not given), the GI50 in the assay on A498, in the assay on A549, in the assay with HT-29, in the assay with LOX IMVI, with MCF7 and with MDA-MB-231 was > 100 µM (inactive) each time. Moreover, the GI50 in the assay with MDA-MB-435, in the assay with NCI-H460, in the assay on OVCAR-3, in the assay with OVCAR-8, in the assay with PC-3 and in the assay with RXF 393 was > 100 µM (inactive) each time. In addition, the GI50 with SF-539, in the assay with SK-MEL-28, in the assay on SK-MEL-5, in the assay with SK-OV-3, with SR and in the assay with T47D was > 100 µM (inactive) throughout. Also, the GI50 in the assay with UACC-62 is > 100 µM (inactive).

As to `COc1cccc(-c2cc(O)c3cc(C)cnc3n2)c1`, the GI50 in the assay with A498 is 0.0904 µM (active); with A549 it was 0.0776 µM (active); in the assay with HT-29 it was 0.0318 µM (active); with LOX IMVI, 0.0512 µM (active); in the assay on MCF7 it was 0.543 µM (active); in the assay on MDA-MB-231, 0.415 µM (active). Besides, the GI50 with MDA-MB-435 was 0.0122 µM (active); with NCI-H460 it was 0.0458 µM (active); in the assay with OVCAR-3 it was 0.049 µM (active); with OVCAR-8, 0.0658 µM (active); in the assay on PC-3, 0.0467 µM (active); in the assay on RXF 393, 0.0211 µM (active). Also, the GI50 with SF-539 was 0.0371 µM (active); in the assay on SK-MEL-28, 0.0787 µM (active); in the assay on SK-MEL-5, 0.0787 µM (active); in the assay with SK-OV-3, 0.283 µM (active); in the assay on SR, 0.0297 µM (active); with T47D, > 100 µM (inactive). The GI50 in the assay with UACC-62 is 0.0258 µM (active).

Take `O=C1C(N2CCCC2)=CC(=O)c2c(O)c(N3CCCC3)c(Cl)c(O)c21`: the GI50 in the assay on A498, in the assay on A549, in the assay with HT-29, in the assay on LOX IMVI, with MCF7 and in the assay on MDA-MB-231 was > 10 µM (inactive) each time. In addition, the GI50 in the assay with MDA-MB-435, in the assay on NCI-H460, in the assay on OVCAR-3, in the assay with PC-3, with RXF 393 and in the assay with SF-539 was > 10 µM (inactive) throughout. The GI50 with SK-MEL-28, in the assay on SK-MEL-5, in the assay with SK-OV-3, in the assay on SR, in the assay with T47D and with TK-10 was > 10 µM (inactive) each time. Moreover, the GI50 in the assay with UACC-62 was > 10 µM (inactive).

On to `NC(=S)N/N=C1\CCc2ccccc2C1`, for which the GI50 in the assay with A498 was > 100 µM (inactive); in the assay with A549 it was > 100 µM (inactive); in the assay on HT-29 it was > 100 µM (inactive); in the assay with LOX IMVI, > 100 µM (inactive); in the assay with MCF7 it was 54.2 µM (inactive); with MDA-MB-231 it was > 100 µM (inactive). In addition, the GI50 was > 100 µM (inactive) in the assay on MDA-MB-435; > 100 µM (inactive) in the assay with NCI-H460; > 100 µM (inactive) in the assay with OVCAR-3; > 100 µM (inactive) with OVCAR-8; > 100 µM (inactive) in the assay with PC-3; 80.4 µM (inactive) with RXF 393. Also, the GI50 with SF-539 is > 100 µM (inactive); with SK-MEL-28 it was > 100 µM (inactive); in the assay on SK-OV-3, > 100 µM (inactive); in the assay on SR, > 100 µM (inactive); with T47D, 13 µM (inactive); in the assay on TK-10, > 100 µM (inactive). Further, the GI50 in the assay on UACC-62 is 55 µM (inactive).

Values taken from ChEMBL document CHEMBL1201862, “PubChem BioAssay data set” (2004).
